Assay results taken from PubChem BioAssay (NCI).
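GI50 = concentration required for 50% inhibition of growth. TGI denotes the concentration required for complete inhibition of growth.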

Experiments:
Assay in all cases: NCI-60 cell line screen, 384-well format
786-0 renal = tested on: 786-0 renal
A498 renal = tested on: A498 renal
A549 NSCLC = tested on: A549 NSCLC
ACHN renal = tested on: ACHN renal
BT-549 breast = tested on: BT-549 breast
CAKI-1 renal = tested on: CAKI-1 renal
CCRF-CEM leukemia = tested on: CCRF-CEM leukemia
COLO 205 colon = tested on: COLO 205 colon
DU-145 prostate = tested on: DU-145 prostate
EKVX NSCLC = tested on: EKVX NSCLC
HCC-2998 colon = tested on: HCC-2998 colon
HCT-15 colon = tested on: HCT-15 colon
HL-60(TB) leukemia = tested on: HL-60(TB) leukemia
HOP-62 NSCLC = tested on: HOP-62 NSCLC
HOP-92 NSCLC = tested on: HOP-92 NSCLC
HS 578T breast = tested on: HS 578T breast
HT29 colon = tested on: HT29 colon
IGROV1 ovarian = tested on: IGROV1 ovarian
K-562 leukemia = tested on: K-562 leukemia
KM12 colon = tested on: KM12 colon
LOX IMVI melanoma = tested on: LOX IMVI melanoma
M14 melanoma = tested on: M14 melanoma
MALME-3M melanoma = tested on: MALME-3M melanoma
MCF7 breast = tested on: MCF7 breast
MDA-MB-231 breast = tested on: MDA-MB-231 breast
MDA-MB-435 melanoma = tested on: MDA-MB-435 melanoma
MDA-MB-468 breast = tested on: MDA-MB-468 breast
MOLT-4 leukemia = tested on: MOLT-4 leukemia
NCI-H226 lung = tested on: NCI-H226 lung

CCN(CC)CCCC(C)Nc1c2ccc(Cl)cc2nc2ccc(OC)cc12 (configuration not stated)
GI50 ([…]-0 renal): 1180 nM
TGI (786-0 renal): 2440 nM
GI50 (A498 renal): 880 nM
TGI (A498 renal): 2110 nM
GI50 (A549 NSCLC): 1510 nM
TGI (A549 NSCLC): 2910 nM
GI50 (ACHN renal): 1040 nM
TGI (ACHN renal): 2440 nM
GI50 (BT-549 breast): 1500 nM
TGI (BT-549 breast): 2840 nM
GI50 (CAKI-1 renal): 1370 nM
TGI (CAKI-1 renal): 2740 nM
GI50 (CCRF-CEM leukemia): 609 nM
TGI (CCRF-CEM leukemia): 1660 nM
GI50 (COLO 205 colon): 1310 nM
TGI (COLO 205 colon): 2600 nM
GI50 (DU-145 prostate): 1720 nM
TGI (DU-145 prostate): 3.53 µM
GI50 (EKVX NSCLC): 1330 nM
TGI (EKVX NSCLC): 2820 nM
GI50 (HCC-2998 colon): 985 nM
TGI (HCC-2998 colon): 2150 nM
GI50 (HCT-15 colon): 1060 nM
TGI (HCT-15 colon): 2300 nM
GI50 (HL-60(TB) leukemia): 1640 nM
TGI (HL-60(TB) leukemia): 3000 nM
GI50 (HOP-62 NSCLC): 1100 nM
TGI (HOP-62 NSCLC): 2440 nM
GI50 (HOP-92 NSCLC): 520 nM
TGI (HOP-92 NSCLC): 1820 nM
GI50 (HS 578T breast): 1710 nM
TGI (HS 578T breast): 3.08 µM
GI50 (HT29 colon): 1330 nM
TGI (HT29 colon): 2630 nM
GI50 (IGROV1 ovarian): 1890 nM
TGI (IGROV1 ovarian): 3.72 µM
GI50 (K-562 leukemia): 1080 nM
TGI (K-562 leukemia): 2290 nM
GI50 (KM12 colon): 1370 nM
TGI (KM12 colon): 3.13 µM
GI50 (LOX IMVI melanoma): 1390 nM
TGI (LOX IMVI melanoma): 2700 nM
GI50 (M14 melanoma): 1790 nM
TGI (M14 melanoma): 3.18 µM
GI50 (MALME-3M melanoma): 1600 nM
TGI (MALME-3M melanoma): 2950 nM
GI50 (MCF7 breast): 1410 nM
TGI (MCF7 breast): 3.2 µM
GI50 (MDA-MB-231 breast): 1180 nM
TGI (MDA-MB-231 breast): 2560 nM
GI50 (MDA-MB-435 melanoma): 1750 nM
TGI (MDA-MB-435 melanoma): 3.14 µM
GI50 (MDA-MB-468 breast): 322 nM
TGI (MDA-MB-468 breast): 1230 nM
GI50 (MOLT-4 leukemia): 212 nM
TGI (MOLT-4 leukemia): 357 nM
GI50 (NCI-H226 lung): 1330 nM
